Experimental data as given in ChEMBL document CHEMBL3137667, “[Drug-induced liver injury; fourteenth updated edition of the bibliographic database of liver injuries and related drugs]” (Gastroenterol Clin Biol, 2004).

Legend:
[1] = Highest frequency of acute liver toxicity observed during clinical trials, expressed as a percentage. [column '% AIGUE' in source]; details: human
[2] = Highest frequency of moderate liver toxicity observed during clinical trials, expressed as a percentage. [column '% BIOL' in source]; details: human
[3] = human, serum
[4] = human
[5] = Times to onset, minimal and maximal, observed in the indexed observations. [column 'DELAI' in source]; details: human
[6] = human; remark: listed apart in the source
[7] = Presence of at least one case with successful reintroduction. [column 'REINT' in source]; details: human
[8] = human; remark: listed apart in the source
[9] = Comments (NB not yet translated). [column 'COMMENTAIRES' in source]; details: human
[10] = human; remark: listed apart in the source
[11] = human; remark: listed apart in the source
[12] = human; remark: listed apart in the source
[13] = human, serum, 4383 h
[14] = human; remark: listed apart in the source
[15] = human; remark: listed apart in the source
[16] = human, serum; remark: listed apart in the source
[17] = human; remark: listed apart in the source
[18] = human; remark: listed apart in the source
[19] = Proposed mechanism(s) of liver damage. [column 'MEC' in source]; details: human
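Throughout, for Hepatotoxicity (association with vascular disease): count of indexed literature references reporting vascular liver injury in humans, e.g. peliosis hepatitis, hepatic veno-occlusive disease or Budd-Chiari syndrome.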
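Throughout, for Hepatotoxicity (benign tumour): value is a count of indexed literature references citing a benign tumour confirmed by histopathology.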
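Throughout, for Hepatotoxicity (choleostasis): human cholestatic liver injury, shown by histopathology or by peak ALT or AST elevation over alkaline phosphatase ratio below 2, value counts indexed literature reports.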
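Throughout, for Hepatotoxicity (chronic liver disease): chronic liver injury confirmed by histopathology or persistently raised serum aminotransferase activity beyond 6 months, value given as the count of indexed literature references.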
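Throughout, for Hepatotoxicity (cirrhosis): value is a count of indexed literature references reporting cirrhosis confirmed by histopathology.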
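Throughout, for Hepatotoxicity (cytolytic): human cytolytic liver injury, shown by histopathology or by a ratio above 5 of peak ALT or AST elevation to alkaline phosphatase elevation, value counts indexed references.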
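Throughout, for Hepatotoxicity (granulomatous hepatitis): value is a count of indexed literature references reporting granulomatous liver disease confirmed by histopathology.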
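Throughout, for Hepatotoxicity (malignant tumour): malignant tumour confirmed by histopathology, value gives the count of indexed literature references reporting it.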
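Throughout, for Hepatotoxicity (severe hepatitis): human clinical data: severe hepatitis, meaning potentially life-threatening liver failure or clinically observed cases, the value counts how many indexed literature references report it.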
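Throughout, for Hepatotoxicity (steatosis): steatosis confirmed by histopathology, value is the count of indexed references.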

SMILES | Hepatotoxicity (acute) [1] [%] | Hepatotoxicity (moderate) [2] [%] | Hepatotoxicity (moderate) [3] | Hepatotoxicity (malignant tumour) [4] | Hepatotoxicity (time to onset) [5] | Hepatotoxicity (animal toxicity known) [6] | Hepatotoxicity (successful reintroduction) [7] | Hepatotoxicity (severe hepatitis) [8] | Hepatotoxicity (comment) [9] | Hepatotoxicity (benign tumour) [10] | Hepatotoxicity (cirrhosis) [11] | Hepatotoxicity (granulomatous hepatitis) [12] | Hepatotoxicity (chronic liver disease) [13] | Hepatotoxicity (cytolytic) [14] | Hepatotoxicity (association with vascular disease) [15] | Hepatotoxicity (acute) [16] | Hepatotoxicity (steatosis) [17] | Hepatotoxicity (choleostasis) [18] | Hepatotoxicity (mechanism) [19]
CO[C@H]1C[C@H](O[C@H]2[C@H](C)[C@@H](O[C@@H]3O[C@H](C)C[C@H](N(C)C)[C@H]3OC(C)=O)[C@@H](C)C[C@@]3(CO3)C(=O)[C@H](C)[C@@H](OC(C)=O)[C@@H](C)[C@@H](C)OC(=O)[C@@H]2C)O[C@@H](C)[C@@H]1OC(C)=O [TROLEANDOMYCIN] | 4 | 83.3 | 15 | 0 | 3 days - 2 weeks | yes | yes | 0 | CHOLANGITE I/PILULE/RIFAMPICINE RC/ERYTHROMYCINE | 0 | 0 | 0 | 0 | 2 | 0 | 27 | 0 | 26 | Allergic, Dose-dependant
CC(C)NNC(=O)c1ccncc1 [IPRONIAZID] | 1.4 | 30 | 2 | 0 | 3 days - 1 year | yes | yes | 18 | AC_ANTI-M6 RC/PHENIPRAZINE | 0 | 3 | 0 | 3 | 28 | 0 | 30 | 0 | 3 | Allergic, Reactive metabolite
COc1cccc2c1C(=O)c1c(O)c3c(c(O)c1C2=O)C[C@@](O)(C(=O)CO)C[C@@H]3O[C@H]1C[C@H](N)[C@H](O)[C@H](C)O1 [DOXORUBICIN] | – | 84.6 | 8 | 1 | 1 week - 3 weeks | yes | yes | 4 | I/MERCAPTOPURINE/VINBLASTINE CHOLANGITE MVO REACTIVATION_HVB | 0 | 0 | 0 | 0 | 4 | 5 | 7 | 0 | 3 | Reactive metabolite, Dose-dependant
CN1CCN(C2=Nc3cc(Cl)ccc3Nc3ccccc32)CC1 [CLOZAPINE] | 1 | 60 | 26 | 0 | 3 days - 6 weeks | A | yes | 1 | CHOLANGITE | 0 | 0 | 0 | 0 | 8 | 0 | – | 0 | 4 | Dose-dependant
